Earlier results on eight compounds are cited in US20200000750A1, “Composition for Treating Acute and Chronic Pain” (priority 2018, published 2020).

Each structure is given as a SMILES string.

The subject of one series is acute attacks of gout. The settings on record: literature; colchiceine at 5 to 8 mg orally.
Series [1] concerns mitosis, spindle formation. The conditions noted are these: for antimitotic effect (mitotic or spindle poison): literature; for antagonism of colchicine: literature (Benitez et al. 1954).
The conditions of series [2]: literature.
For the next series, the system named is spermatogenesis. The settings on record: in vivo.
For a further series, the system named is humans. The conditions noted are these: with the doses mentioned.
A further series concerns granulocytopoiesis. The conditions noted are these: animals and humans; compared with colchicine.

Take `COc1cc2c(c(OC)c1OC)-c1ccc(=O)c(O)cc1[C@@H](NC(C)=O)CC2` [colchiceine]: the “anti-gout effect in acute attacks of gout” value (shortened to “anti-gout effect”) with acute attacks of gout is listed as “no anti-gout effects”. In series [1], the “antimitotic effect (mitotic or spindle poison)” value is given as “very weak antimitotic”. For the same compound, in series [2], the diarrheal effect result is on record as “very weak”.

Take `COc1c(O[C@@H]2O[C@H](CO)[C@@H](O)[C@H](O)[C@H]2O)cc2c(c1OC)-c1ccc(OC)c(=O)cc1[C@@H](NC(C)=O)CC2` [colchicoside]: in the series on acute attacks of gout, the “anti-gout effect” value is given as “equivocal results”.

For `O=c1cccccc1O` [tropolone], in series [1], the “antimitotic effect (mitotic or spindle poison)” value is given as “not a spindle poison but rather favors the formation of the spindle” and the antagonism of colchicine result was “potent antagonist of colchicine”.

Turning to `COc1cc2c(c(OC)c1OC)-c1ccc(OC)c(=O)cc1[C@@H](NC(C)=O)CC2` [Colchicine, colchicine], the “anti-gout effect” value with acute attacks of gout is on record as “dramatic relief of acute attacks of gout”.

In the case of `O[C@H]1[C@H](O)[C@@H](O)[C@H](O)[C@@H](O)[C@H]1O` [mesoinosital], the antagonism of colchicine entry in series [1] is reported as “potent antagonist of colchicine”.

Take `CN[C@H]1CCc2cc(OC)c(OC)c(OC)c2-c2ccc(OC)c(=O)cc21` [Desacetylmethylcolchicine]: in the series on birds, the loss of feathers result was “loss of feathers”. For the same compound, the effect on spermatogenesis result in the series with spermatogenesis is on record as “Impairment of spermatogenesis”. In addition, the alopecia result in the series on humans is on record as “temporary total alopecia”. The effect on granulocytopoiesis result in the series on granulocytopoiesis is given as “very depressing effect on granulocytopoiesis, much greater than colchicine”.

As to `O=C(CCc1ccc(O)cc1)c1c(O)cc(O)cc1O[C@@H]1O[C@H](CO)[C@@H](O)[C@H](O)[C@H]1O` [Phlorizine], the “increase of the antimitotic effect of colchicine (synergist)” value in series [1] (literature (H. R. Littre, et al. 1951)) is “eight times”.

With `COc1cc2c(c(OC)c1OC)-c1ccc(=O)c(OC)cc1[C@@H](NC(C)=O)CC2` [Iso-colchicine], the “anti-gout effect” value in the series with acute attacks of gout is “little or no anti-gout effects”. In addition, in series [1], the “antimitotic effect (mitotic or spindle poison)” value is given as “relatively ineffective as mitotic poisons”. The toxicity entry in series [2] is “relatively nontoxic”.
